For one experiment, the target named is T1, CysLT1 receptor (Homo sapiens, UniProt Q9Y271).
T1 construct: host or cells: CHO cells
T1 sequence (Q9Y271 1-337): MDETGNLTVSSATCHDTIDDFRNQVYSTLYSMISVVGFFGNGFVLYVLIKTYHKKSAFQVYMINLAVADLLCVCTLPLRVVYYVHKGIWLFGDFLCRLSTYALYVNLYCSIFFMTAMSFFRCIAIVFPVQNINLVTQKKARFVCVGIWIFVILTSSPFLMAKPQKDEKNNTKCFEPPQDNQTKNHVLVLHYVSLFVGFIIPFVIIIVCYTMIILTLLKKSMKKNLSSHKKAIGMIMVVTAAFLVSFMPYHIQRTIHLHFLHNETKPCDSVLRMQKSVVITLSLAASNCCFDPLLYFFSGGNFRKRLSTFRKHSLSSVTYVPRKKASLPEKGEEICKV
The experiment in a line: CysLT1 calcium mobilisation assay in CHO cells. The class given is cell-based. The settings on record: 0.1 nM LTD4, CHO cells expressing CysLT1, read-out: inhibition of calcium mobilisation (CysLT1 antagonism). How it is done:
(§1) FIG. 15 tables the percentage inhibition by compounds 11B_CC11_HCl and 11B_CC16_HCl on the cysteinyl leukotriene pathway in in vitro and ex vivo assays. […] For in vitro cysteinyl leukotriene cell-based assays 11B_CC11_HCl and 11B_CC16_HCl, were tested at 30 μM concentration in duplicate, in a single experiment for their ability to inhibit the calcium mobilisation response of the CysLT1 receptor to 0.1 nM leukotriene D4 in CHO cells over-expressing the CysLT1 receptor or the calcium mobilisation response of the CysLT2 receptor to 30 nM of leukotriene C4 in HEK 293 cells over expressing the CysLT2 receptor.
(§2) Target profiling using Cerep and Eurofins/Panlabs profiling screens was undertaken using 11B_CC11_HCl and 11B_CC16_HCl in order to investigate the mechanism of action. […] Test substance (30 LM)-induced isometrically recorded contraction by 50 percent or more within 5 min, relative to control 3 nM leukotriene D4 response, indicates possible cysteinyl-leukotriene LT1 receptor agonist activity. […] To measure inhibition of cysteinyl leukotriene 1 (CysLT1 [LTD4]) and cysteinyl leukotriene 2 (CysLT2 [LTC4]) receptor activity, calcium mobilisation was measured using Fluor-3-loaded CHO cells (for cysLT1 assays) or HEK-293 cells (for CysLT2 assays) which stably express either the CysLT1 or CysLT2 receptors. […]
On the technique in general: Calcium flux is commonly read through the fluorescence of an indicator in the cells.

Another experiment addresses T2, CysLT2 receptor (Homo sapiens, UniProt Q9NS75).
T2 construct: host or cells: HEK 293 cells
T2 sequence (Q9NS75 1-346): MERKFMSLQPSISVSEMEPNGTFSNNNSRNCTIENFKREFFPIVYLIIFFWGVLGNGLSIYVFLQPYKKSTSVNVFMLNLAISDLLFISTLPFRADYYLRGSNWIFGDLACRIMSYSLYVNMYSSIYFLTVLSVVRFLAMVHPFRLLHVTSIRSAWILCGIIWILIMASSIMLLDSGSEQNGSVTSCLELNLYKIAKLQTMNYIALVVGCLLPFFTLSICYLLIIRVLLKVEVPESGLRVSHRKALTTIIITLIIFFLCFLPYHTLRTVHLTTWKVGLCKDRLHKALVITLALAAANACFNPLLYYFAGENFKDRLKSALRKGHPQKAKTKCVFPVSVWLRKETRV
The experiment in a line: CysLT2 calcium mobilisation assay in HEK 293 cells. The class given is cell-based. The settings on record: HEK293, 30 nM LTC4, HEK-293 cells expressing CysLT2, read-out: inhibition of calcium mobilisation (CysLT2 antagonism). How it is done:
as §1, §2

Experiment [1] concerns the target T3, cysteinyl-leukotriene CysLT1 (Cavia porcellus, UniProt Q2NNR5).
T3 construct: a lung strip obtained from Duncan Hartley derived male or female guinea pigs; from tissue; host or cells: guinea pig lung strip
T3 sequence (Q2NNR5 1-340): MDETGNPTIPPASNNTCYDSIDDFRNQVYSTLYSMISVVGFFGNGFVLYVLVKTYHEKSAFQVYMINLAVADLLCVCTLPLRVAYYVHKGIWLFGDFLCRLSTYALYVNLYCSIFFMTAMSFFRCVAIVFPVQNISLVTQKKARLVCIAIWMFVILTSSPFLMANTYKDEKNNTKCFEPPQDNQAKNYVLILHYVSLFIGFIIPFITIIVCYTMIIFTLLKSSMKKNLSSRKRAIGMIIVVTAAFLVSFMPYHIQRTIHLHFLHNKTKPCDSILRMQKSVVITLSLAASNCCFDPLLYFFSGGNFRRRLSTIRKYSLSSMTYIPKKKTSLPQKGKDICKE
The experiment in a line: Ex vivo cysteinyl leukotriene guinea pig lung strip assay. The settings on record: 30 μM, 3 nM leukotriene D4. How it is done:
as §1, §2

The term inhibition denotes the drop in the measured response relative to a control, in per cent. Turning to `Cl.Oc1ccccc1C#Cc1ccc2ccccc2n1` [Compound 11B_CC16_HCl, 2-Quinolin-2-yl-ylethynyl-phenol HCl salt], the inhibition at 30 µM was determined as 137% on CysLT1 receptor and 48% at CysLT2 receptor. Further, the “reduction of the leukotriene D4-induced contractile response” value in experiment [1] was determined as 100%.

For the origin of these results see patent US9815788B2, “Anti-angiogenic compounds” (University College Dublin National University of Ireland, …, priority 2012, dated 2017).
